Reference: patent publication US10253015B2, “Pyridinyl quinolinone derivatives as mutant-isocitrate dehydrogenase inhibitors” (FORMA TM2, Inc., priority 2014, dated 2019)
Like-named read-outs stand apart in the source and are kept apart here.

Tests used:
[1] = molecular target: IDH1-R132H recombinant protein (Homo sapiens (Human), UniProt O75874, R132H); experiment: IDH1-R132H enzymatic assay; type: biochemical
Protocol: (§1) Assays were performed in a 384-well black plate. […] After the plate was centrifuged briefly, an aliquot of 10 μL of 2 mM α-ketoglutarate and 20 μM NADPH solution prepared in assay buffer was then added to each well and the reaction was maintained at 25° C. for 45 minutes. An aliquot of 10 μL of diaphorase solution (0.15 U/mL diaphorase and 30 μM Resazurin in assay buffer) was added to each well. […] The IC50 of a given compound was calculated by fitting the dose response curve of inhibition of NADPH consumption at a given concentration with the four parameter logistic equation.

[2] = system: HCT116 isogenic IDH1-R132H mutant cells; experiment: Cellular 2-HG assay using HCT116 mutant IDH1 cells (R132H); type: cell-based; conditions: Homo sapiens, HCT-116; cellular 2-HG inhibition, 24 hours, RapidFire mass spectrometry; read-out: HCT IDH1 R132H Range IC50
Protocol: (§2) HCT116 isogenic IDH1-R132H and IDH1-R132C mutant cells were cultured in growth media (McCoy's 5 A, 10% fetal bovine serum, 1× antibiotic-antimycotic solution and 0.3 mg/mL G418) in 5% CO2 in an incubator at 37° C. To prepare the assay, cells were trypsinized and resuspended in assay media (McCoy's 5 A with no L-glutamine, 10% fetal bovine serum, 1× antibiotic-antimycotic solution and 0.3 mg/mL G418). An aliquot of 10,000 cells/100 μL was transferred to each well of a clear 96-well tissue culture plate. The cells were incubated in 5% CO2 at 37° C. in an incubator overnight to allow for proper cell attachment. An aliquot of 50 μL of compound containing assay media were then added to each well and the assay plate was kept in 5% CO2 at 37° C. in an incubator for 24 hours. The media was then removed from each well and 150 μL of a methanol/water mixture (80/20 v/v) was added to each well. The plates were kept at −80° C. freezer overnight to allow for complete cell lysis. An aliquot of 125 μL of extracted supernatant was analyzed by RapidFire high-throughout-mass spectrometry (Agilent) to determine the cellular 2-HG level. The IC50 of a given compound was calculated by fitting the dose response curve of cellular 2-HG inhibition at a given concentration with the four parameter logistic equation

[3] = molecular target: IDH1-R132C recombinant protein (Homo sapiens (Human), UniProt O75874, R132C); experiment: IDH1-R132C enzymatic assay; type: biochemical
Chain of IDH1-R132C recombinant protein (O75874 whole entry R132C): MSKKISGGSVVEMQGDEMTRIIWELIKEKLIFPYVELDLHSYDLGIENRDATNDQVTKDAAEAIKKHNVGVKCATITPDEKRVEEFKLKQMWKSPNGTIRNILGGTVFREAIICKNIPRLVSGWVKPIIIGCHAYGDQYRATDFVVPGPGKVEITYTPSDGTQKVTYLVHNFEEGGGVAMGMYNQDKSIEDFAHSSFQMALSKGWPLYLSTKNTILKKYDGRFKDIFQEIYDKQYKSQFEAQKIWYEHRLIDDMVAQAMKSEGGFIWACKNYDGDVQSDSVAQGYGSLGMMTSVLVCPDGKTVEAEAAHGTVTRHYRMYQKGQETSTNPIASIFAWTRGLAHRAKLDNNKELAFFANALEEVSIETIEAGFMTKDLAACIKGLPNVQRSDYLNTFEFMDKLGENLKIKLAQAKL
Protocol: as §1

[4] = system: HCT116 isogenic IDH1-R132C mutant cells; experiment: Cellular 2-HG assay using HCT116 mutant IDH1 cells (R132C); type: cell-based; conditions: Homo sapiens, HCT-116; cellular 2-HG inhibition, 24 hours, RapidFire mass spectrometry; read-out: HCT IDH1 R132C Range IC50
Protocol: as §2

[5] = inhibition of NADPH consumption, diaphorase/resazurin readout, read-out: Enzyme IDH1 R132H Range IC50
[6] = inhibition of NADPH consumption, diaphorase/resazurin readout, read-out: Enzyme IDH1 R132C Range IC50

Chain of IDH1-R132H recombinant protein (O75874 whole entry R132H): as the sequence (O75874 whole entry R132C) above, with C132H counted along it

| Structure (SMILES) | IC50 [1, 5] [nM] | IC50 [2] [nM] | IC50 [3, 6] [nM] | IC50 [4] [nM] | IC50 [1] [nM] | IC50 [3] [nM] |
| --- | --- | --- | --- | --- | --- | --- |
| Cc1nc(N[C@@H](C)c2cc3cc(Cl)ccc3[nH]c2=O)ccc1C#N [Compound I-4, (S)-6-(1-(6-chloro-2-oxo-1,2-dihydroquinolin-3-yl)ethylamino)-2-methyl nicotinonitrile] | < 100 | 100 to 1000 | 100 to 1000 | 100 to 1000 |  |  |
| Cc1cc(N[C@@H](C)c2cc3cc(Cl)ccc3[nH]c2=O)ncc1C#N [Compound I-5, (S)-6-((1-(6-chloro-2-oxo-1,2-dihydroquinolin-3-yl)ethyl)amino)-4-methyl nicotinonitrile] | < 100 | 100 to 1000 | 100 to 1000 | 100 to 1000 |  |  |
| COc1nc(N[C@@H](C)c2cc3cc(Cl)ccc3[nH]c2=O)ccc1C#N [Compound I-6, 6-{[(1S)-1-(6-chloro-2-oxo-1,2-dihydroquinolin-3-yl)ethyl]amino}-2-methoxypyridine-3-carbonitrile] | < 100 | 100 to 1000 | 100 to 1000 | 10 to 100 |  |  |
| COc1nc(C#N)ccc1N[C@@H](C)c1cc2cc(Cl)ccc2[nH]c1=O [Compound I-7, 5-{[(1S)-1-(6-chloro-2-oxo-1,2-dihydroquinolin-3-yl)ethyl]amino}-6-methoxypyridine-2-carbonitrile] | < 100 | 100 to 1000 | 1000 to 10000 | 100 to 1000 |  |  |
| Cc1nc(NC(C)c2cc3cc(Cl)ccc3[nH]c2=O)ccc1C#N (centres unmarked) [Compound I-9, 6-{[1-(6-chloro-2-oxo-1,2-dihydroquinolin-3-yl)ethyl]amino}-2-methylpyridine-3-carbonitrile] | 100 to 1000 | 100 to 1000 | 100 to 1000 | > 1000 |  |  |
| C[C@H](Nc1nccc(N2CCOC2=O)c1F)c1cc2cc(Cl)ccc2[nH]c1=O [Compound I-14, 6-chloro-3-[(1S)-1-{[3-fluoro-4-(2-oxo-1,3-oxazolidin-3-yl)pyridin-2-yl]amino}ethyl]-1,2-dihydroquinolin-2-one] | < 100 | 100 to 1000 | 100 to 1000 | 100 to 1000 |  |  |
| Cc1nc(NC(C)c2cc3cc(Cl)c(F)cc3[nH]c2=O)ccc1C#N (centres unmarked) [Compound I-21, 6-{[1-(6-chloro-7-fluoro-2-oxo-1,2-dihydroquinolin-3-yl)ethyl]amino}-2-methylpyridine-3-carbonitrile] | < 100 | 100 to 1000 | 100 to 1000 | 100 to 1000 |  |  |
| Cc1nc(N[C@@H](C)c2cc3cc(Cl)c(F)cc3[nH]c2=O)ccc1C#N [Compound I-22, 6-{[(1S)-1-(6-chloro-7-fluoro-2-oxo-1,2-dihydroquinolin-3-yl)ethyl]amino}-2-methylpyridine-3-carbonitrile] | < 100 | < 10 | 100 to 1000 | 100 to 1000 |  |  |
| COc1cc2[nH]c(=O)c(C(C)Nc3ccc(C#N)c(C)n3)cc2cc1Cl (centres unmarked) [Compound I-24, 6-{[1-(6-chloro-7-methoxy-2-oxo-1,2-dihydroquinolin-3-yl)ethyl]amino}-2-methylpyridine-3-carbonitrile] |  |  |  | 100 to 1000 |  |  |
| COc1cc2[nH]c(=O)c([C@H](C)Nc3cc(OC)c(C#N)cn3)cc2cc1Cl [Compound I-25, 6-{[(1S)-1-(6-chloro-7-methoxy-2-oxo-1,2-dihydroquinolin-3-yl)ethyl]amino}-4-methoxypyridine-3-carbonitrile] |  | 10 to 100 |  | 100 to 1000 | < 100 | < 100 |
| COc1cc2[nH]c(=O)c([C@H](C)Nc3ccc(C#N)c(OC)n3)cc2cc1Cl [Compound I-26, 6-{[(1S)-1-(6-chloro-7-methoxy-2-oxo-1,2-dihydroquinolin-3-yl)ethyl]amino}-2-methoxypyridine-3-carbonitrile] | < 100 | < 10 | < 100 | 10 to 100 |  |  |
| COc1cc2[nH]c(=O)c([C@H](C)Nc3cc(C)c(C#N)cn3)cc2cc1Cl [Compound I-27, 6-{[(1S)-1-(6-chloro-7-methoxy-2-oxo-1,2-dihydroquinolin-3-yl)ethyl]amino}-4-methylpyridine-3-carbonitrile] | < 100 | 10 to 100 | < 100 | 100 to 1000 |  |  |
| Cc1nc(N[C@@H](C)c2cc3cc(Cl)c(OCc4ccccn4)cc3[nH]c2=O)ccc1C#N [Compound I-28, 6-{[(1S)-1-[6-chloro-2-oxo-7-(pyridin-2-ylmethoxy)-1,2-dihydroquinolin-3-yl]ethyl]amino}-2-methylpyridine-3-carbonitrile] | < 100 | 10 to 100 | < 100 | < 10 |  |  |
| Cc1nc(NC(C)c2cc3cc(Cl)c(OCc4ccccn4)cc3[nH]c2=O)ccc1C#N (centres unmarked) [Compound I-29, 6-({1-[6-chloro-2-oxo-7-(pyridin-2-ylmethoxy)-1,2-dihydroquinolin-3-yl]ethyl}amino)-2-methylpyridine-3-carbonitrile] | < 100 | 10 to 100 |  | 10 to 100 |  |  |
| Cc1nc(NC(C)c2cc3cc(Cl)c(OCC4CC(F)(F)C4)cc3[nH]c2=O)ccc1C#N (centres unmarked) [Compound I-30, 6-[(1-{6-chloro-7-[(3,3-difluorocyclobutyl)methoxy]-2-oxo-1,2-dihydroquinolin-3-yl}ethyl)amino]-2-methylpyridine-3-carbonitrile] | < 100 | 10 to 100 | 100 to 1000 | 10 to 100 |  |  |
| Cc1c(-c2ccnc(N[C@@H](C)c3cc4cc(Cl)ccc4[nH]c3=O)c2)cnn1C [Compound I-40, 6-chloro-3-[(1S)-1-{[4-(1,5-dimethyl-1H-pyrazol-4-yl)pyridin-2-yl]amino}ethyl]-1,2-dihydroquinolin-2-one] | 100 to 1000 | 100 to 1000 | 100 to 1000 | 100 to 1000 |  |  |
| Cc1nc(NCc2cc3cc(Cl)ccc3[nH]c2=O)ccc1C#N [Compound I-58, 6-{[(6-chloro-2-oxo-1,2-dihydroquinolin-3-yl)methyl]amino}-2-methylpyridine-3-carbonitrile] | < 100 | 100 to 1000 | 100 to 1000 | > 1000 |  |  |
| COc1cc2[nH]c(=O)c(CNc3ccc(C#N)c(C)n3)cc2cc1Cl [Compound I-83, 6-{[(6-chloro-7-methoxy-2-oxo-1,2-dihydroquinolin-3-yl)methyl]amino}-2-methylpyridine-3-carbonitrile] | < 100 | > 1000 | > 10000 | > 1000 |  |  |
